# Assays:
# healthy volunteers [1] = experiment: Phase 1 single- and multiple-ascending dose study, safety and tolerability; type: in vivo, human
# Source text: A total of 131 healthy, males aged 18 to 60 years and post-menopausal females aged 45 to 60 years, participated in this study.
# (§1) The primary objectives of this study were to a) evaluate safety and tolerability of escalating doses of the compound of Formula I-11 administered as single and multiple oral doses in healthy male volunteers and healthy postmenopausal female volunteers and b) evaluate the PK parameters following escalating doses of the compound of Formula I-11 administered as single and multiple oral doses. The secondary objective of this study was to evaluate the pharmacodynamic (PD) parameters following escalating doses of the compound of Formula I-11 administered as single and multiple oral doses. This study was conducted in two parts.
# Part 1 included 80 participants (10 cohorts of 8 participants each). Male and female participants who met the eligibility criteria were randomly assigned, in a ratio of 3:1 to receive the compound of Formula I-11 or matching placebo, N=6 and 2 per dose cohort, respectively. Participant enrollment included […] males and 12.5% females (postmenopausal). The IMP formulation used in Cohorts 1 through 6 was an oral capsule (doses of 1, 3, 10, 30, 100, or 300 mg capsule formulation). An oral liquid formulation was evaluated in Cohorts 7 through 10 (doses of 30, 100, 300 or 450 mg liquid formulation).
# (§2) Participants in Part 1 received a single oral dose of the compound of Formula I-11 or placebo on Day 1 and serial PK samples were collected. Baseline assessments were performed on day −1 prior to dosing. Samples were collected for determination of pharmacodynamic parameters at pre-dose daily and up to 24 hours post dose (day 2) after a single oral dose of the compound of Formula I-11. Participants remained at the study site for observation for 24 hours post-dose through the PK sample collection on Day 2. Participants returned to the site for the 48, 72, and 120-hour post-dose sample collection on Days 3, 4, and 6. Safety was evaluated by a Safety Review Committee prior to escalation to the next dose level cohort.
# Part 2, Cohorts 1 through 4, included 41 participants (4 cohorts of 10 participants each and 1 additional placebo participant in Cohort 1). Male and female participants who met the eligibility criteria were randomly assigned at a ratio of 4:1 to receive either the compound of Formula I-11 oral liquid formulation or matching placebo, N=8 and 2 per dose cohort respectively. Forty (97.6%) males and 1 (2.4%) female (placebo) participant were enrolled.
# (§3) Participants in Part 2, Cohorts 1 through 3, received a daily oral dose of the compound of Formula I-11 (50, 100, or 200 mg liquid formulation respectively) or placebo for 7 days. A daily oral dose of the compound of Formula I-11 or placebo in participants in Part 2, Cohort 4 (350 mg liquid formulation) was planned for 14 days but was discontinued early in all subjects, either by the Investigator because of AEs, or by the Sponsor. A decision was made by the Sponsor to discontinue dosing of the entire cohort based on the frequency of AEs and laboratory abnormalities after Day 9. In Cohort 4, participants on the compound of Formula I-11 received daily oral dosing of 350 mg for up to 7 days; one placebo participant received daily oral dosing for 9 days. Samples were collected for determination of pharmacodynamic parameters at pre-dose daily and to 24 hours post dose (day 8) while on drug. Daily trough PK samples were collected for the determination of steady-state from Day 2 to Day 12 or 13. Participants returned to the site on Day 30 for an end-of-study visit. Safety was evaluated by a Safety Review Committee prior to escalation to the next dose level cohort.
# Part 2, MAD Cohort 5 (C5) participants received either the compound of Formula I-11, 100 mg (n=8) or placebo (n=2) on Days 1, 2, 3, 4, 5, 6, 7. The last dose was administered on the morning of Day 7. […]
# [2] = Phase 1 single- and multiple-ascending dose study, PK parameters; type: in vivo, human
# Source text: as §1
# Participants in Part 1 received a single oral dose of the compound of Formula I-11 or placebo on Day 1 and serial PK samples were collected. Baseline assessments were performed on day −1 prior to dosing. Samples were collected for determination of pharmacodynamic parameters at pre-dose daily and up to 24 hours post dose (day 2) after a single oral dose of the compound of Formula I-11. […] Safety was evaluated by a Safety Review Committee prior to escalation to the next dose level cohort.
# Participants in Part 2, Cohorts 1 through 3, received a daily oral dose of the compound of Formula I-11 (50, 100, or 200 mg liquid formulation respectively) or placebo for 7 days. […] Safety was evaluated by a Safety Review Committee prior to escalation to the next dose level cohort. […]
# healthy volunteers [3] = experiment: Phase 1 single- and multiple-ascending dose study, pharmacodynamic endpoints (serum iron, transferrin saturation, ferritin, hepcidin, reticulocyte hemoglobin, cholesterol); type: in vivo, human; conditions: for transferrin saturation, mean percent change from baseline / serum iron, mean change from baseline: Day 4, multiple ascending doses; for transferrin saturation, mean percent change from baseline: placebo 0.3%; for serum iron, mean change from baseline: placebo 1.4
# Source text: as §1, §2, §3
# Part 2, MAD Cohort 5 (C5) participants received either the compound of Formula I-11, 100 mg (n=8) or placebo (n=2) on Days 1, 2, 3, 4, 5, 6, 7. The last dose was administered on the morning of Day 7. Serial PK sample collection for the determination of steady-state concentrations of the compound of Formula I-11 was done at pre-dose and up to 24 hours post-dose, beginning on Day 1, 4 and 7. Participants returned for follow-up visits on […], and Day 30 for an end-of-study visit.
# Pharmacodynamic endpoints: Protocol-specified endpoints were assessed at baseline and regularly throughout the study period. These assessments included measurements of serum iron, transferrin saturation (calculated as serum iron/total iron-binding capacity), serum ferritin, serum hepcidin, and reticulocyte hemoglobin content, serum cholesterol, LDL, and HDL cholesterol. Measurements of all pharmacodynamic end points were made using standard clinical laboratory tests. Hepcidin analysis was performed using an ELISA kit from Intrinsic LifeSciences (Intrinsic Hepcidin IDx™ ELISA kit).
# [4] = test system: mouse model of chronic kidney disease (CKD); experiment: Adenine-induced mouse model of chronic kidney disease; type: in vivo, C57Bl/6 mice
# Protocol: To induce chronic kidney disease (CKD), 6-week-old C57Bl/6 mice were dosed daily via PO administration with 50 mg/kg of adenine or vehicle. After six weeks of adenine administration, a representative group of mice were taken down and tested to confirm anemia. Concomitantly, the remainder of the CKD mice began dosing with either vehicle or the compound of Formula I-42 5 mg/kg PO daily. Mice were dosed with vehicle or the compound of Formula I-42 while still receiving daily adenine for 10 days. The study was terminated at 52 days and hematology (Heska, Element HT-5), serum hepcidin (Intrinsic Biosciences, Hepcidin Murine Compete), and serum iron (Bioassay Systems, QuantiChrom Kit) levels were assessed.
# mouse model of IRIDA = experiment: TMPRSS6 siRNA mouse model of IRIDA; type: in vivo, C57BL/6 mice
# Protocol: To establish a murine model of IRIDA, eight-week-old male C57BL/6 mice were dosed intravenously with lipid encapsulated siRNA targeted against either Luciferase (control) or TMPRSS6 (0.75 mg/kg). Following confirmation of disease at day 8 post initial siRNA administration, once-daily oral dosing with the compound of Formula I-42 (5 mg/kg) or vehicle commenced. A second siRNA administration was given on day 10. Studies were terminated 18 days post initial siRNA administration. Hematological parameters, serum iron, and serum hepcidin were measured at the end of the study.
# [5] = fourth dose level (350 mg daily)
# [6] = second dose level (100 mg daily)
# [7] = third dose level (200 mg daily)
# [8] = 5 mg/kg PO daily for 10 days, Day 52
# [9] = 5 mg/kg PO daily, after 10 days
# [10] = 5 mg/kg once-daily oral from day 8, study termination (day 18)
# [11] = 5 mg/kg once-daily oral from day 8, study termination (day 18), with TMPRSS6 siRNA
compound,measurement,setting,value
COc1cc2c(-c3cnn4cc(N5CCC(N6CCN(C)CC6)CC5)cnc34)ccnc2cc1F [Formula I-11],"well tolerated dose level, repeated dose","healthy volunteers [1]; after 7 daily oral doses, healthy participants",up to 200 mg
same,participants who discontinued the study due to AEs,"healthy volunteers [1]; human, in vivo",25%
same,AEs reported in ≥2 subjects and higher than placebo,healthy volunteers [1]; in vivo,"headache, nausea, vomiting, diarrhea, gastroenteritis, chills, pyrexia, myalgia, decreased appetite, lymphopenia, neutropenia, abdominal discomfort, abdominal pain (upper), dizziness, fatigue, rhinorrhea, tonsillitis, and liver enzyme increases"
same,AEs that led to study drug discontinuation in three or more participants,healthy volunteers [1]; in vivo,lymphopenia and chills
same,onset of lymphopenia (% change in lymphocytes),healthy volunteers [1]; in vivo,5 days
same,reversibility of lymphopenia / lymphocyte changes,healthy volunteers [1]; in vivo,reversible
same,serious adverse events,healthy volunteers [1]; in vivo,no serious adverse events
same,severity of the majority of AEs,healthy volunteers [1]; in vivo,mild or moderate in severity
same,subjects who discontinued the study due to AEs,healthy volunteers [1]; in vivo,none
same,subjects with increases in ALT >2×ULN,healthy volunteers [1]; in vivo,3 subjects
same,development of lymphopenia (lymphocyte counts <1.0×10^9 cells/L),"healthy volunteers [1]; in vivo, po",≥ 6 day
same,"well tolerated dose level, single dose","healthy volunteers [1]; single oral dose, healthy participants",up to 450 mg
same,half-life,"[2]; both sexes, human, in vivo, oral, healthy participants, approximately",10 to 15 h
same,"Mean AUC and Cmax, dose proportionality",[2]; multiple doses from 50-200 mg,greater than dose-proportional increases
same,time to decrease in hepcidin,"healthy volunteers [3]; Cohort 5 (100 mg), after administration of the first dose, as early as",4 h
same,"transferrin saturation, mean percent change from baseline",healthy volunteers [3]; first dose level (50 mg daily),1.6%
same,"serum iron, mean change from baseline",healthy volunteers [3]; first dose level (50 mg daily),1.48 μM/L
same,"transferrin saturation, mean percent change from baseline",healthy volunteers [3]; [5],30.1%
same,"serum iron, mean change from baseline",healthy volunteers [3]; [5],17.71 μM/L
same,"transferrin saturation, mean percent change from baseline",healthy volunteers [3]; [6],1.5%
same,"serum iron, mean change from baseline",healthy volunteers [3]; [6],0.59 μM/L
same,"transferrin saturation, mean percent change from baseline",healthy volunteers [3]; [7],7.5%
same,"serum iron, mean change from baseline",healthy volunteers [3]; [7],5.11 μM/L
same,serum ferritin,healthy volunteers [3]; MAD cohort participants,decreases in serum ferritin
same,day of peak increase in reticulocyte hemoglobin content,healthy volunteers [3]; MAD cohorts,7 days
same,start of increase in reticulocyte hemoglobin content,"healthy volunteers [3]; MAD cohorts 1-4, day post-dosing",4 days
same,"effect on serum ferritin, single vs multiple doses",healthy volunteers [3]; SAD and MAD cohorts,observed only after multiple doses
same,time to decrease in total cholesterol,healthy volunteers [3]; SAD cohorts,≤ 24 h
same,day of peak serum iron concentrations,"healthy volunteers [3]; multiple dose regimen, day of treatment",Day 3 or 4
same,"transferrin saturation, observed PD response",healthy volunteers [3]; once-daily doses of 50 mg,not substantially different from placebo
same,serum hepcidin vs placebo,"healthy volunteers [3]; once-daily oral over 7 days, effect similar at 50 mg, 100 mg and 200 mg",robust decreases in baseline hepcidin
same,hemoglobin content of reticulocytes,healthy volunteers [3]; repeated administration,increases over baseline in the hemoglobin content of reticulocytes
same,serum iron,healthy volunteers [3]; single (SAD) or once-daily (MAD) oral administration,"rapid, robust, and sustained dose-related increases in serum iron"
same,"transferrin saturation, observed PD response","healthy volunteers [3]; single dose of 30 mg, liquid formulation",not substantially different from placebo
same,time of peak effect on serum iron,"healthy volunteers [3]; single dose, Day 2, post-dose",24 h
same,transferrin saturation,healthy volunteers [3]; single or repeated doses of 100 mg or above,"sustained, dose-related increases in transferrin saturation"
same,total cholesterol,healthy volunteers [3]; single or repeated oral administration (Cohorts 1-4),decreases in total cholesterol
COc1cc2c(-c3cnn4cc(N5CC(N6CCN(C)CC6)C5)cnc34)ccnc2cc1F [Formula I-42],"hematocrit, higher than vehicle-treated mice receiving adenine",[4]; [8],10.2%
same,"hemoglobin, higher than vehicle-treated mice receiving adenine",[4]; [8],10.7%
same,"red blood cell counts, higher than vehicle-treated mice receiving adenine",[4]; [8],7.1%
same,"reticulocyte hemoglobin content, higher than vehicle-treated mice receiving adenine",[4]; [8],10.4%
same,increase in serum iron values vs vehicle treated mice receiving adenine,[4]; [9],108.2%
same,reduction in serum hepcidin values vs vehicle treated mice receiving adenine,[4]; [9],85.4%
same,disease phenotype,mouse model of IRIDA; 5 mg/kg once-daily oral,rescued the disease phenotype
same,serum hepcidin vs vehicle-treated mice receiving TMPRSS6 siRNA,mouse model of IRIDA; [10],decreased serum hepcidin
same,serum iron vs vehicle-treated mice receiving TMPRSS6 siRNA,mouse model of IRIDA; [10],increased serum iron
same,hematocrit vs vehicle-treated mice,mouse model of IRIDA; [11],increase
same,hemoglobin levels vs vehicle-treated mice,mouse model of IRIDA; [11],increase
same,red blood cell counts vs vehicle-treated mice,mouse model of IRIDA; [11],increase
